Series [1] deals with HCC4017 cells. The experiment in a line: FACS binding assay. On the set-up: species or system human. On the procedure: FACS binding assays were conducted to further quantify the binding event of the PPS1 monomer and PPS1D1 dimer.
For orientation: Flow cytometry measures light scatter and fluorescence of single cells or particles in a stream.

Series [2] in a line: Lipid ELISA-like binding assay. The text has this:
Structural features of PPS1and PS were compared to determine why PPS1 preferred PS over PC. PPS1 has three positive charged residues aligned together and a hydrophobic region with four consecutive aromatic rings (FIG. 9A). This can perfectly form both electrostatic and hydrophobic interactions with opposing negatively charged PS head groups and its hydrophobic tail regions.
One of the major questions arising at this point is how PPS1 or PPS1D1 specifically recognizes PS over PC, as both lipids have negatively charged phosphate head groups. To address this specificity concern, ELISA-like binding assay were expanded to include other membrane phospholipids such as phosphatidylethanolamine (PE), sphingomyelin (SM), phosphatidic acid (PA), phosphatidylinositol (PI) and phosphatidylglycerol (PG). […] This additional negative charge can be responsible for the interaction with the positively charged region of PPS1 or PPS1D1, while the hydrophobic regions of PPS1 or PPS1D1 may interact with hydrophobic tail groups of the lipids through van der Waals forces. […] The membrane was treated with biotin labeled PPS1D1 and binding was detected by immunoblotting with streptavidin-HRP. […] It has been reported that PS can form a bilayer lamellar and reverse hexagonal phase. PS is mainly in a lamellar phase after hydration at physiological pH. By validating our binding through an ELISA-like assay and liposomes, PPS1D1 has an equal opportunity to bind to each phase of PS.
Lipids (Avanti Polar Lipids) were dissolved in hexane at 10 μg/ml and coated on to Immulon 1B “U” bottom microtiter plates (ThermoFisher, MA). Hexane was evaporated at room temp (in the hood) and the plates were blocked with 200 μl of 1% BSA in PBS for 1 hour. Plates were washed with 3× PBS. […] Plates were washed with 5× PBS and binding was detected with streptavidin-HRP (1:2000 in blocking buffer) followed by 100 μl OPD (Sigma-Aldrich). The reaction was stopped with 100 μl 0.18M H2SO4 and absorbance was read at 490 nm using the spectrophotometer (Spectramax i3, Molecular Devices, CA).
A general note: ELISA stands for enzyme-linked immunosorbent assay.

In series [3] the test system is HCC4017, H460, HCC95, H1693, H1395 lung cancer cell lines. Nature of the series: MTS cell viability assay on series of lung cancer cell lines. It counts as cell-based, human. The text has this: In this current study, the target of PPS1D1 is PS and HCC4017 strongly expresses PS. Our next goal was to evaluate the level of PS externalization on other lung cancer cell lines and the activity profile of PPS1D1 on those cell lines. A variety of lung cancer cell lines HCC4017 (lung adenocarcinoma), H460 (large cell lung cancer), H1395 (lung adenocarcinoma), HCC95 (squamous cell lung carcinoma), H1993 (adenocarcinoma; non-small cell lung cancer), H1695 and HBEC30KT (normal bronchial epithelial cells) were treated with fluorescein-labeled Annexin V (FITC-Annexin V) and the bound fluorescein signal was detected using flow cytometry. […] Standard cell viability (MTS) assay by treating these cell lines with PPS1D1 (1 and 20 μM) and 20 μM of a control compound PC462D1 (FIG. 68) in 96-well plates were performed. […] PPS1D1 had no effect on normal HBEC30KT cells at either concentration.
HCC4017, H460, HCC95, H1693, H1395 and HBEC30KT cells were grown in clear bottom 96 well plates. On second day, lung cancer cells were treated with PPS1, PPS1D1 and control PC462D1 in RPMI medium with 10% FBS containing 3% BSA. HBEC30KT was treated with PPS1, PPS1D1 and control PC462D1 in KSFM media with 3% BSA.

The test system of series [4] is H460 xenografts. The experiment in a line: Inhibition of growth of H460 lung cancer xenograft. Conditions: for tumor size reduction: H460 in nude mice, daily dose of 0.5 mg/mL. In kind it is in vivo, mice. The procedure: Whether PPS1D1 would inhibit tumor growth in a murine model was examined. H460 cells were implanted in nude mice. Tumors were allowed grow until it reach […]. These xenografts were then treated with a daily dose of […] in four different groups that consist of PPS1D1 alone, docetaxel alone, PPS1D1 and docetaxel together or with the control peptoid (PC462D1) alone. Docetaxel is a standard chemotherapeutic treatment for non-small cell carcinoma. The activity of PPSD1 and its ability to work as a combination treatment were examined. […] This effect was extremely potent and the tumor growth was completely controlled. […] It has been reported that chemotherapy and radiation therapy increase the PS flipping in tumor microenvironment. Therefore, Docetaxel might have helped improve binding of PPS1D1 on cancer cell surface that is now displaying an increased amount of PS to be targeted. After the standard chemotherapy and radiation therapy, the target PS is highly abundant for the drug to recognize and attack.
The effect of PPS1D1 on the growth of H460 xenografts implanted in NOD/SCID immunodeficient mice was examined. Immunodeficient animals were chosen to facilitate the growth of human tumor xenografts. […] Therapy with a control peptoid (PC462D1, 0.25 mg/mouse, 3×/week ip), PPS1D1 (0.25 mg/mouse, 3×/week ip), docetaxel (0.5 mg/kg, 2×/week, ip) or the combination of PPS1D1+docetaxel was initiated when tumors were ˜100 mm3 in volume. […] Tumor tissue was harvested after 4 weeks of therapy and assessed for cell proliferation and apoptosis by immunohistochemistry. […] It is clear from studies with bavituximab that standard chemotherapy (e.g., taxanes) increases the exposure of PS resulting in elevated binding of the PS targeting agent. A similar mechanism can underlie the enhanced activity of docetaxel and PPS1D1.
All animals were housed in a pathogen-free facility with continuous access to food and water. Mice were purchased from the core breeding facility at UT Southwestern. Six to eight-week-old female NOD/SCID mice were injected with 2.5×10^6 H460 cells subcutaneously. Tumor volume was followed by twice weekly measurements with Vernier calipers. Animals were randomized and treatment was initiated with mean tumor volume of each group was 100 mm3. Four different groups used were: (I) control PC462D1, (II) PPS1D1, (III) docetaxel, and (IV) combination of PPS1D1+docetaxel. Mice (n=8/group) were treated with PPS1D1 or PC462D1 in saline by ip injection at a dose of 0.25 mg/mouse, 3 times per week on a M-W-F schedule. Docetaxel from the UT Southwestern Clinical pharmacy was diluted in saline and delivered 2×/week ip at 5 mg/kg. Animals were sacrificed after 4 weeks of therapy. Tumor tissue was snap frozen, sectioned and stained with antibodies specific for phospho-Histone H3 (Millipore, #06-570) and cleaved caspase 3 (Cell Signaling, #9664). Reactivity was developed with appropriate fluorescently conjugated secondary antibodies (Jackson ImmunoResearch) and mounted with Prolong Gold with DAPI (Invitrogen), coverslipped and evaluated by fluorescence microscopy.

The structures appear in SMILES notation. Entries after “also recorded” stand apart in the source; their conditions may differ. Positions of bridges follow the written chain, without caps; N, C: chain ends. Non-standard residues stand in square brackets, D forms with d. Residues, ends and D or L forms follow the SMILES beside them. Chains are numbered I, II in the order given. Gly(N-piperonyl) = O=C(O)CNCc1ccc2c(c1)OCO2; N(4-MeOBn)Gly = COc1ccc(CNCC(=O)O)cc1; Nrpe = C[C@@H](NCC(=O)O)c1ccccc1; Nlys = NCCCCNCC(=O)O

`COc1ccc(CN(CC(=O)N(CCCCN)CC(=O)N[C@@H](CCCCN)C(=O)N[C@H](CCCCN)C(=O)N[C@@H](CCSC)C(=O)NCCCC[C@H](NC(=O)[C@H](CCSC)NC(=O)[C@@H](CCCCN)NC(=O)[C@H](CCCCN)NC(=O)CN(CCCCN)C(=O)CN(Cc2ccc(OC)cc2)C(=O)CN(C(=O)CN(Cc2ccc3c(c2)OCO3)C(=O)CN[C@H](C)c2ccccc2)[C@H](C)c2ccccc2)C(N)=O)C(=O)CN(C(=O)CN(Cc2ccc3c(c2)OCO3)C(=O)CN[C@H](C)c2ccccc2)[C@H](C)c2ccccc2)cc1` [PPS1D1] (I: H-[Nrpe][Gly(N-piperonyl)][Nrpe][N(4-MeOBn)Gly][Nlys]K[dK]MK-NH2 / II: H-[Nrpe][Gly(N-piperonyl)][Nrpe][N(4-MeOBn)Gly][Nlys]K[dK]M; amide I:9-II:C; N-terminus assumed): the “improvement of binding of dimeric version over PPS1” value in series [1] is reported as “about 175 fold”. Besides, in series [1] (FACS), the dissociation constant Kd – broadly, the constant that tells how readily two partners part at equilibrium – was 80 nM. In addition, in series [2], the “binding to PA” value is listed as “displayed binding”, the “binding to PG” value is listed as “displayed binding” and the “binding to PI” value is listed as “displayed binding”. Moreover, the “cytotoxicity on lung cancer cell lines” value in series [3] (1 μM) is “not at 1 μM”. Besides, the “cytotoxicity on lung cancer cell lines” value in series [3] (20 μM) was “strong cytotoxicity”. In series [4] (H460 in NOD/SCID mice, peptoids 0.25 mg/mouse 3x/week ip, docetaxel 0.5 mg/kg 2x/week ip), the “tumor growth (tumor volume vs days post therapy initiation)” value is given as “slowed tumor growth”. Also, the tumor size reduction result in series [4] is “strong tumor burden effect; also recorded: equally effective in reducing the size of the tumors”. In addition, in series [4] (listed as PPSD1), the tumor size reduction entry is recorded as “slightly better effect”. For the same compound, in series [4] (at the doses used), the animal weight loss result is recorded as “did not induce animal weight loss”.
